Data as given in the NIST ThermoML archive (doi:10.1021/acs.jced.6b00121).
Numbers after ± are expanded uncertainties.

Assay: xn = mol fraction of the nth substance listed
Details: 100 kPa, Liquid; for viscosity: Falling or rolling sphere viscometry; for mass density: Vibrating tube method

`CCCCCCCCCCC` [undecane] + CCCCCCO gave a viscosity (283.15 K, x1 = 0.1011) of 5.655 ± 0.078 mPa·s, a viscosity (283.15 K, x1 = 0.1989) of 4.274 ± 0.059 mPa·s and a viscosity (283.15 K, x1 = 0.2998) of 3.34 ± 0.046 mPa·s. It also gave a viscosity (283.15 K, x1 = 0.4001) of 2.615 ± 0.036 mPa·s, a viscosity (283.15 K, x1 = 0.4994) of 2.198 ± 0.03 mPa·s and a viscosity (283.15 K, x1 = 0.6004) of 1.95 ± 0.026 mPa·s. It also gave a viscosity (283.15 K, x1 = 0.6989) of 1.72 ± 0.023 mPa·s, a viscosity (283.15 K, x1 = 0.8001) of 1.564 ± 0.021 mPa·s and a viscosity (283.15 K, x1 = 0.8991) of 1.455 ± 0.019 mPa·s. The viscosity (283.15 K, x1 = 1) was 1.371 ± 0.018 mPa·s, the mass density (283.15 K, x1 = 0.1011) was 812.86 ± 1.6 kg/m3 and the mass density (283.15 K, x1 = 0.1989) was 802.1 ± 1.6 kg/m3. The mass density (283.15 K, x1 = 0.2998) was 792.19 ± 1.6 kg/m3, the mass density (283.15 K, x1 = 0.4001) was 783.5 ± 1.6 kg/m3 and the mass density (283.15 K, x1 = 0.4994) was 775.87 ± 1.6 kg/m3. It also gave a mass density (283.15 K, x1 = 0.6004) of 768.89 ± 1.6 kg/m3, a mass density (283.15 K, x1 = 0.6989) of 762.82 ± 1.5 kg/m3 and a mass density (283.15 K, x1 = 0.8001) of 757.18 ± 1.5 kg/m3. The mass density (283.15 K, x1 = 0.8991) was 752.28 ± 1.5 kg/m3, the mass density (283.15 K, x1 = 1) was 747.78 ± 1.5 kg/m3 and the viscosity (288.15 K, x1 = 0.1011) was 4.784 ± 0.065 mPa·s. The viscosity (288.15 K, x1 = 0.1989) was 3.651 ± 0.05 mPa·s, the viscosity (288.15 K, x1 = 0.2998) was 2.88 ± 0.039 mPa·s and the viscosity (288.15 K, x1 = 0.4001) was 2.322 ± 0.031 mPa·s. It also gave a viscosity (288.15 K, x1 = 0.4994) of 2.019 ± 0.027 mPa·s, a viscosity (288.15 K, x1 = 0.6004) of 1.752 ± 0.024 mPa·s and a viscosity (288.15 K, x1 = 0.6989) of 1.554 ± 0.021 mPa·s. The viscosity (288.15 K, x1 = 0.8001) was 1.419 ± 0.019 mPa·s, the viscosity (288.15 K, x1 = 0.8991) was 1.329 ± 0.018 mPa·s and the viscosity (288.15 K, x1 = 1) was 1.249 ± 0.017 mPa·s. The mass density (288.15 K, x1 = 0.1011) was 809.29 ± 1.6 kg/m3, the mass density (288.15 K, x1 = 0.1989) was 798.49 ± 1.6 kg/m3 and the mass density (288.15 K, x1 = 0.2998) was 788.53 ± 1.6 kg/m3. It also gave a mass density (288.15 K, x1 = 0.4001) of 779.81 ± 1.6 kg/m3, a mass density (288.15 K, x1 = 0.4994) of 772.18 ± 1.6 kg/m3 and a mass density (288.15 K, x1 = 0.6004) of 765.18 ± 1.6 kg/m3. The mass density (288.15 K, x1 = 0.6989) was 759.1 ± 1.5 kg/m3, the mass density (288.15 K, x1 = 0.8001) was 753.47 ± 1.5 kg/m3 and the mass density (288.15 K, x1 = 0.8991) was 748.57 ± 1.5 kg/m3. For the same compound, the mass density (288.15 K, x1 = 1) was 744.06 ± 1.5 kg/m3, the viscosity (293.15 K, x1 = 0.1011) was 4.073 ± 0.056 mPa·s and the viscosity (293.15 K, x1 = 0.1989) was 3.136 ± 0.043 mPa·s. It also gave a viscosity (293.15 K, x1 = 0.2998) of 2.505 ± 0.034 mPa·s, a viscosity (293.15 K, x1 = 0.4001) of 2.118 ± 0.028 mPa·s and a viscosity (293.15 K, x1 = 0.4994) of 1.808 ± 0.024 mPa·s. For the same compound, the viscosity (293.15 K, x1 = 0.6004) was 1.58 ± 0.021 mPa·s, the viscosity (293.15 K, x1 = 0.6989) was 1.41 ± 0.019 mPa·s and the viscosity (293.15 K, x1 = 0.8001) was 1.293 ± 0.017 mPa·s. For the same compound, the viscosity (293.15 K, x1 = 0.8991) was 1.218 ± 0.016 mPa·s, the viscosity (293.15 K, x1 = 1) was 1.145 ± 0.015 mPa·s and the mass density (293.15 K, x1 = 0.1011) was 805.71 ± 1.6 kg/m3. It also gave a mass density (293.15 K, x1 = 0.1989) of 794.85 ± 1.6 kg/m3, a mass density (293.15 K, x1 = 0.2998) of 784.85 ± 1.6 kg/m3 and a mass density (293.15 K, x1 = 0.4001) of 776.12 ± 1.6 kg/m3. The mass density (293.15 K, x1 = 0.4994) was 768.47 ± 1.6 kg/m3, the mass density (293.15 K, x1 = 0.6004) was 761.46 ± 1.5 kg/m3 and the mass density (293.15 K, x1 = 0.6989) was 755.38 ± 1.5 kg/m3. It also gave a mass density (293.15 K, x1 = 0.8001) of 749.75 ± 1.5 kg/m3, a mass density (293.15 K, x1 = 0.8991) of 744.85 ± 1.5 kg/m3 and a mass density (293.15 K, x1 = 1) of 740.35 ± 1.5 kg/m3. It also gave a viscosity (298.15 K, x1 = 0.1011) of 3.494 ± 0.048 mPa·s, a viscosity (298.15 K, x1 = 0.1989) of 2.719 ± 0.037 mPa·s and a viscosity (298.15 K, x1 = 0.2998) of 2.198 ± 0.03 mPa·s. For the same compound, the viscosity (298.15 K, x1 = 0.4001) was 1.886 ± 0.025 mPa·s, the viscosity (298.15 K, x1 = 0.4994) was 1.626 ± 0.022 mPa·s and the viscosity (298.15 K, x1 = 0.6004) was 1.432 ± 0.019 mPa·s. The viscosity (298.15 K, x1 = 0.6989) was 1.284 ± 0.017 mPa·s, the viscosity (298.15 K, x1 = 0.8001) was 1.182 ± 0.016 mPa·s and the viscosity (298.15 K, x1 = 0.8991) was 1.116 ± 0.015 mPa·s. For the same compound, the viscosity (298.15 K, x1 = 1) was 1.062 ± 0.014 mPa·s, the mass density (298.15 K, x1 = 0.1011) was 802.1 ± 1.6 kg/m3 and the mass density (298.15 K, x1 = 0.1989) was 791.2 ± 1.6 kg/m3. The mass density (298.15 K, x1 = 0.2998) was 781.16 ± 1.6 kg/m3, the mass density (298.15 K, x1 = 0.4001) was 772.4 ± 1.6 kg/m3 and the mass density (298.15 K, x1 = 0.4994) was 764.75 ± 1.6 kg/m3. The mass density (298.15 K, x1 = 0.6004) was 757.73 ± 1.5 kg/m3, the mass density (298.15 K, x1 = 0.6989) was 751.65 ± 1.5 kg/m3 and the mass density (298.15 K, x1 = 0.8001) was 746.02 ± 1.5 kg/m3. It also gave a mass density (298.15 K, x1 = 0.8991) of 741.12 ± 1.5 kg/m3, a mass density (298.15 K, x1 = 1) of 736.64 ± 1.5 kg/m3 and a viscosity (303.15 K, x1 = 0.1011) of 3.016 ± 0.041 mPa·s. For the same compound, the viscosity (303.15 K, x1 = 0.1989) was 2.374 ± 0.032 mPa·s, the viscosity (303.15 K, x1 = 0.2998) was 1.952 ± 0.026 mPa·s and the viscosity (303.15 K, x1 = 0.4001) was 1.687 ± 0.023 mPa·s. The viscosity (303.15 K, x1 = 0.4994) was 1.47 ± 0.02 mPa·s.
